Legend:
[1] = test system: transgenic tobacco plants expressing mutant HPPD SEQ ID NO: 8; experiment: spray test, herbicidal damage scoring; assay type: in vivo; conditions: 2000 g/ha; SEQ ID 8 plants compared to plants expressing SEQ IDs 122, 124 or 125
Description: (§1) Avena sativa HPPD or orthologues and variants thereof, for example SEQ IDs 1-63 and 122-127, were expressed in transgenic tobacco. DNA sequences that encode these polypeptides (optimized for tobacco or, optionally, codon optimized according to a target crop such as soybean) were prepared synthetically. Each sequence was designed to include a 5′ fusion with TMV omega 5′ leader sequence such that they are flanked at the 5′ end with XhoI and at the 3′ end with KpnI to facilitate direct cloning into a suitable binary vector for Agrobacterium-based plant transformation. […]
(§2) Plants are assessed for damage and scored at, for example, 7 and 14 days after treatment (DAT). […]
(§3) Plants of events showing the least damage are grown to flowering, then bagged and allowed to self. […] Single copy events amongst the Ti plant lines are identified by their 3:1 segregation ratio (with respect to kanamycin and/or herbicide) and by quantitative RT-PCR. […] HPPD expression levels were monitored by Western analysis. […]

[2] = test system: transgenic tobacco plants expressing mutant HPPD SEQ ID NO: 21; experiment: spray test, herbicidal damage scoring; assay type: in vivo; conditions: 2000 g/ha; SEQ ID 21 plants compared to plants expressing SEQ IDs 122, 124 or 125
Description: as §1, §2, §3

[3] = test system: HPPD variant ALOME V209 (SEQ ID NO: 19); experiment: coupled HGO assay; assay type: biochemical, Alopecurus myosuroides
Description: (§4) DNA sequences (SEQ ID NOs: 65-118, 128, 130, 131, and 133), synthesized for expression in E. coli, by GeneWiz (USA) to encode HPPD variants (SEQ ID NOs: 5-58, 122, 124, 125 and 127) derived from either Avena sativa (SEQ ID NOs: 122, 124), Alopecurus myosuroides (SEQ ID NO: 126) or Apera spica-venti (SEQ ID NOs: 123, 125) were transformed into E coli BL21 (DE3) (New England Biolabs) and grown in 0.5 ml Terrific broth +50 ug/ml Kanamycin media in a 96-deepwell block overnight (37° C., 900rpm). 25 ul of the overnight cultures were inoculated into fresh 96-deepwell block containing 1 ml Formedium Autoinduction Media (AIM). The AIM cultures were grown for 3h at 37° C. (900rpm) and then transferred to 20° C. overnight (900rpm) to allow protein expression. The overnight cultures were centrifuged and 500 ul of Cellytic B (Sigma Aldrich) was added to resuspend the cell pellets. The coupled HGO assay (Siehl et al, 2014) is used to generate IC50 values for the HPPD variants of interest.
(§5) E. coli BL21 (DE3) cells were transformed with a pET24a vector containing a C-terminally his-tagged Arabidopsis HGO gene, grown and induced overnight as described for the HPPD variants above. The cell pellet was resuspended in phosphate buffered saline at pH 7.4 containing 10% Glycerol, 1mm Tris[2-carboxyethyl] phosphine-HCl (TCEP) plus 30 mM Imidazole and lysed using lysozyme/benzonase. The extract was clarified by low speed centrifugation and purified in the same buffer down a 1 ml His Gravitrap column. The bound HGO was eluted in 0.25M imidazole and the fractions pooled and beaded into liquid nitrogen. All procedures apart from the centrifugation and beading steps were carried out under a nitrogen atmosphere.
(§6) The coupled HGO assay is carried out by adding 10 ul of HPPD extract to a 96-well plate and then adding 40 ul of reaction buffer (50 mM Bis Tris Propane, pH7.0, 25 mM sodium-L-ascorbate, 400μM mercaptoethanol, 50 μM Fe(II)SO4). The plates are left to incubate for 5 minutes on ice. […] 200 ul of HPP/HGO (197 μM hydroxyphenylpyruvic acid, 16 μl/ml Homogentisic Acid Oxidase in reaction buffer as described above) buffer is then added to the well and the reaction is regularly monitored (e.g. every 30 seconds-5 minutes) for absorbance at 330 nm for a given time period (e.g., for between 15-60 minutes). The data can then be used to calculate the IC50 value for each HPPD variant of interest.

[4] = test system: HPPD variant ALOME V200 (SEQ ID NO: 7); experiment: coupled HGO assay; assay type: biochemical, Alopecurus myosuroides
Description: as §4, §5, §6

SMILES: Cn1nnnc1NC(=O)c1ccc(C(F)(F)F)nc1-n1cncn1 [Herbicide D, N-(1-methyltetrazol-5-yl)-2-(1,2,4-triazol-1-yl)-6-(trifluoromethyl)pyridine-3-carboxamide]
- damage [1]: significantly reduced damage
- damage [2]: significantly reduced damage
- IC50 [3]: 96.9 µM
- IC50 [4]: 77.8 µM

Source: patent US20240043860A1, “NOVEL HYDROXYPHENYLPYRUVATE DIOXYGENASE POLYPEPTIDES AND METHODS OF USE THEREOF” (Syngenta Crop Protection AG, priority 2020, published 2024)
